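Five compound concentrations were applied to cells in 96-well plates for 48 hours; endpoints were derived by simple linear interpolation of the resulting dose-response curve. Abbreviation: GI50, concentration required for 50% inhibition of growth. TGI: concentration producing complete growth inhibition.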
What was measured:
Test in all cases: DTP human tumour cell line panel, 48 h
SK-MEL-5 melanoma = tested on: SK-MEL-5 melanoma
HT29 colon = tested on: HT29 colon
SF-268 CNS = tested on: SF-268 CNS
PC-3 prostate = tested on: PC-3 prostate
HCT-116 colon = tested on: HCT-116 colon
DU-145 prostate = tested on: DU-145 prostate
HOP-62 NSCLC = tested on: HOP-62 NSCLC
RPMI-8226 leukemia = tested on: RPMI-8226 leukemia
NCI-H23 lung = tested on: NCI-H23 lung
ACHN renal = tested on: ACHN renal
OVCAR-3 ovarian = tested on: OVCAR-3 ovarian
IGROV1 ovarian = tested on: IGROV1 ovarian
SNB-75 CNS = tested on: SNB-75 CNS
A549 NSCLC = tested on: A549 NSCLC
SF-539 CNS = tested on: SF-539 CNS
NCI-H460 lung = tested on: NCI-H460 lung
MDA-MB-231 breast = tested on: MDA-MB-231 breast
MCF7 breast = tested on: MCF7 breast
A498 renal = tested on: A498 renal
UACC-62 melanoma = tested on: UACC-62 melanoma
EKVX NSCLC = tested on: EKVX NSCLC
SN12C renal = tested on: SN12C renal
HCT-15 colon = tested on: HCT-15 colon
T-47D breast = tested on: T-47D breast
SR leukemia = tested on: SR leukemia
OVCAR-4 ovarian = tested on: OVCAR-4 ovarian
NCI/ADR-RES ovarian = tested on: NCI/ADR-RES ovarian
CCRF-CEM leukemia = tested on: CCRF-CEM leukemia
RXF 393 renal = tested on: RXF 393 renal
SW-620 colon = tested on: SW-620 colon
UO-31 renal = tested on: UO-31 renal
SNB-19 CNS = tested on: SNB-19 CNS
HCC-2998 colon = tested on: HCC-2998 colon
U251 CNS = tested on: U251 CNS
M14 melanoma = tested on: M14 melanoma
BT-549 breast = tested on: BT-549 breast
KM12 colon = tested on: KM12 colon
HS 578T breast = tested on: HS 578T breast
786-0 renal = tested on: 786-0 renal
NCI-H522 lung = tested on: NCI-H522 lung
SK-MEL-28 melanoma = tested on: SK-MEL-28 melanoma
SF-295 CNS = tested on: SF-295 CNS
LOX IMVI melanoma = tested on: LOX IMVI melanoma
SK-OV-3 ovarian = tested on: SK-OV-3 ovarian
NCI-H226 lung = tested on: NCI-H226 lung
COLO 205 colon = tested on: COLO 205 colon
MDA-MB-435 = tested on: MDA-MB-435
MOLT-4 leukemia = tested on: MOLT-4 leukemia
K-562 leukemia = tested on: K-562 leukemia
OVCAR-5 ovarian = tested on: OVCAR-5 ovarian
HL-60(TB) leukemia = tested on: HL-60(TB) leukemia
UACC-257 melanoma = tested on: UACC-257 melanoma
SK-MEL-2 melanoma = tested on: SK-MEL-2 melanoma
MALME-3M melanoma = tested on: MALME-3M melanoma
HOP-92 NSCLC = tested on: HOP-92 NSCLC
OVCAR-8 ovarian = tested on: OVCAR-8 ovarian
CAKI-1 renal = tested on: CAKI-1 renal
TK-10 renal = tested on: TK-10 renal

CN1CCN(C(=O)[C@@]2(C)CC[C@]3(C)CC[C@]4(C)C(=CC[C@@H]5[C@@]6(C)CCC(=O)NC(C)(C)[C@@H]6CC[C@]54C)[C@@H]3C2)CC1
GI50 (SK-MEL-5 melanoma): 1640 nM
TGI (SK-MEL-5 melanoma): 3060 nM
GI50 (HT29 colon): 1500 nM
TGI (HT29 colon): 3350 nM
GI50 (SF-268 CNS): 3040 nM
TGI (SF-268 CNS): 14400 nM
GI50 (PC-3 prostate): 813 nM
TGI (PC-3 prostate): 2420 nM
GI50 (HCT-116 colon): 1130 nM
TGI (HCT-116 colon): 2450 nM
GI50 (DU-145 prostate): 3440 nM
TGI (DU-145 prostate): 12100 nM
GI50 (HOP-62 NSCLC): 1560 nM
TGI (HOP-62 NSCLC): 3130 nM
GI50 (RPMI-8226 leukemia): 1430 nM
TGI (RPMI-8226 leukemia): 3740 nM
GI50 (NCI-H23 lung): 2480 nM
TGI (NCI-H23 lung): 8910 nM
GI50 (ACHN renal): 1990 nM
TGI (ACHN renal): 4110 nM
GI50 (OVCAR-3 ovarian): 2010 nM
TGI (OVCAR-3 ovarian): 4700 nM
GI50 (IGROV1 ovarian): 1770 nM
TGI (IGROV1 ovarian): 3770 nM
GI50 (SNB-75 CNS): 1570 nM
TGI (SNB-75 CNS): 3340 nM
GI50 (A549 NSCLC): 2020 nM
TGI (A549 NSCLC): 5280 nM
GI50 (SF-539 CNS): 1560 nM
TGI (SF-539 CNS): 2900 nM
GI50 (NCI-H460 lung): 1690 nM
TGI (NCI-H460 lung): 3300 nM
GI50 (MDA-MB-231 breast): 1700 nM
TGI (MDA-MB-231 breast): 3470 nM
GI50 (MCF7 breast): 1830 nM
TGI (MCF7 breast): 4170 nM
GI50 (A498 renal): 2680 nM
TGI (A498 renal): 12100 nM
GI50 (UACC-62 melanoma): 1550 nM
TGI (UACC-62 melanoma): 3030 nM
GI50 (EKVX NSCLC): 2740 nM
TGI (EKVX NSCLC): 12800 nM
GI50 (SN12C renal): 1460 nM
TGI (SN12C renal): 3300 nM
GI50 (HCT-15 colon): 1200 nM
TGI (HCT-15 colon): 2960 nM
GI50 (T-47D breast): 1620 nM
TGI (T-47D breast): 4210 nM
GI50 (SR leukemia): 391 nM
TGI (SR leukemia): 4470 nM
GI50 (OVCAR-4 ovarian): 2940 nM
TGI (OVCAR-4 ovarian): 13000 nM
GI50 (NCI/ADR-RES ovarian): 3000 nM
TGI (NCI/ADR-RES ovarian): 11900 nM
GI50 (CCRF-CEM leukemia): 1580 nM
TGI (CCRF-CEM leukemia): 4430 nM
GI50 (RXF 393 renal): 1060 nM
TGI (RXF 393 renal): 2520 nM
GI50 (SW-620 colon): 1870 nM
TGI (SW-620 colon): 3930 nM
GI50 (UO-31 renal): 1190 nM
TGI (UO-31 renal): 2510 nM
GI50 (SNB-19 CNS): 1810 nM
TGI (SNB-19 CNS): 3560 nM
GI50 (HCC-2998 colon): 1510 nM
TGI (HCC-2998 colon): 3040 nM
GI50 (U251 CNS): 1380 nM
TGI (U251 CNS): 2820 nM
GI50 (M14 melanoma): 1690 nM
TGI (M14 melanoma): 3380 nM
GI50 (BT-549 breast): 1580 nM
TGI (BT-549 breast): 3280 nM
GI50 (KM12 colon): 1560 nM
TGI (KM12 colon): 3130 nM
GI50 (HS 578T breast): 2060 nM
TGI (HS 578T breast): 6780 nM
GI50 (786-0 renal): 1580 nM
TGI (786-0 renal): 2980 nM
GI50 (NCI-H522 lung): 1780 nM
TGI (NCI-H522 lung): 3750 nM
GI50 (SK-MEL-28 melanoma): 1560 nM
TGI (SK-MEL-28 melanoma): 2970 nM
GI50 (SF-295 CNS): 1530 nM
TGI (SF-295 CNS): 3070 nM
GI50 (LOX IMVI melanoma): 1460 nM
TGI (LOX IMVI melanoma): 2840 nM
GI50 (SK-OV-3 ovarian): 1840 nM
TGI (SK-OV-3 ovarian): 3870 nM
GI50 (NCI-H226 lung): 4140 nM
TGI (NCI-H226 lung): 21400 nM
GI50 (COLO 205 colon): 1540 nM
TGI (COLO 205 colon): 3180 nM
GI50 (MDA-MB-435): 1620 nM
TGI (MDA-MB-435): 3300 nM
GI50 (MOLT-4 leukemia): 1520 nM
TGI (MOLT-4 leukemia): 3660 nM
GI50 (K-562 leukemia): 1070 nM
TGI (K-562 leukemia): 3020 nM
GI50 (OVCAR-5 ovarian): 1650 nM
TGI (OVCAR-5 ovarian): 3170 nM
GI50 (HL-60(TB) leukemia): 1870 nM
TGI (HL-60(TB) leukemia): 3870 nM
GI50 (UACC-257 melanoma): 2100 nM
TGI (UACC-257 melanoma): 4720 nM
GI50 (SK-MEL-2 melanoma): 1940 nM
TGI (SK-MEL-2 melanoma): 3840 nM
GI50 (MALME-3M melanoma): 1450 nM
TGI (MALME-3M melanoma): 2820 nM
GI50 (HOP-92 NSCLC): 1050 nM
TGI (HOP-92 NSCLC): 3890 nM
GI50 (OVCAR-8 ovarian): 3940 nM
TGI (OVCAR-8 ovarian): 14800 nM
GI50 (CAKI-1 renal): 2360 nM
TGI (CAKI-1 renal): 6480 nM
GI50 (TK-10 renal): 1800 nM
TGI (TK-10 renal): 3420 nM

From PubChem BioAssay (NCI)
